Patent US20240245653A1, “PHARMACEUTICAL FORMULATIONS” (SPEPHARM AG, priority 2021, published 2024)
Read-outs that look alike come from different tables or passages of the source.

Experiments:
[1] = Dantrolene sodium solubility in water only solutions of HPBCD (visual inspection); assay type: physicochemical; conditions: for solubility: aqueous with cosolvent or surfactant or cyclodextrin; for Maximum concentration of dantrolene sodium that could be dissolved: <2 μm particle size
Description: This study was performed to determine the impact of HPBCD on the solubility of dantrolene Sodium. An initial comparison of different HPBCDs was carried out using HP5 and HP7 substituted variants (Cavitron™ W7, Ashland, Inc.), which have a typical degree of substitution (average number of hydroxypropyl groups per cyclodextrin molecule) of 4.1-5.1 and 6.0-8.0 respectively. (Equivalent products, such as Kleptose® HPB (Roquette), which is a low endotoxin burden (<10 IU/g) HP5 substituted β-cyclodextrin with typical molar substitution (i.e. per anhydro glucose subunit) of 0.65 (range 0.58 to 0.68), are also available for commercial scale manufacturing.)
Due to the larger molecular weight of the HP7 variant, more weight of excipient was required to achieve the same molar equivalent concentration compared with the HP5 variant. Overall, HP5 substituted β-cyclodextrin was preferred and it was therefore used for subsequent test formulations.
Further analysis was performed to determine the maximum possible concentration of dantrolene sodium, at different particle sizes, in water only solutions of HP5 substituted β-cyclodextrin. Commercially available samples of dantrolene sodium having particle sizes of <2 μm and <63 μm were tested. […] Results are shown in Table 1 below; DNa denotes dantrolene sodium.

[2] = Dantrolene sodium solubility with HPBCD and parenteral-compatible co-solvent addition (visual inspection); assay type: physicochemical; conditions: for Result (assessed by visual inspection): 7 Mol equivalent HP5 HPBCD solution
Description: This experiment was performed to determine the effects of different parenteral-compatible alcohol- and ketone-based co-solvents on dantrolene sodium solubility, in a 7 Mol equivalent HP5 substituted HPBCD solution. The results are shown in Table 2 below; DNa denotes dantrolene sodium.

O=C1CN(/N=C/c2ccc(-c3ccc([N+](=O)[O-])cc3)o2)C([O-])=N1.[Na+] [DNa, dantrolene sodium]
Result (assessed by visual inspection) ([1]; DNa 4.46 mg/mL anhydrous salt equivalent (5.16 mg/mL hemiheptahydrate equivalent), particle size <2 μm, 7 molar equivalent HP5 HPBCD, water only): Complete solution
Result (assessed by visual inspection) ([1]; DNa 4.5 mg/mL anhydrous salt equivalent (5.33 mg/mL hemiheptahydrate equivalent), particle size <2 μm, 7 molar equivalent HP5 HPBCD, water only): Complete solution
Result (assessed by visual inspection) ([1]; DNa 4.5 mg/mL anhydrous salt equivalent (5.35 mg/mL hemiheptahydrate equivalent), particle size <63 μm, 7 molar equivalent HP5 HPBCD, water only): Complete solution
Result (assessed by visual inspection) ([1]; DNa 4.55 mg/mL anhydrous salt equivalent (5.36 mg/mL hemiheptahydrate equivalent), particle size <2 μm, 7 molar equivalent HP5 HPBCD, water only): Complete solution
Result (assessed by visual inspection) ([1]; DNa 4.6 mg/mL anhydrous salt equivalent (5.40 mg/mL hemiheptahydrate equivalent), particle size <2 μm, 7 molar equivalent HP5 HPBCD, water only): Slightly Hazy Solution (Incomplete)
Result (assessed by visual inspection) ([1]; DNa 4.65 mg/mL anhydrous salt equivalent (5.47 mg/mL hemiheptahydrate equivalent), particle size <2 μm, 7 molar equivalent HP5 HPBCD, water only): Hazy Solution (Incomplete)
Result (assessed by visual inspection) ([1]; DNa 4.75 mg/mL anhydrous salt equivalent (5.58 mg/mL hemiheptahydrate equivalent), particle size <2 μm, 7 molar equivalent HP5 HPBCD, water only): Hazy Solution (Incomplete)
Result (assessed by visual inspection) ([1]; DNa 4.75 mg/mL anhydrous salt equivalent (5.66 mg/mL hemiheptahydrate equivalent), particle size <63 μm, 7 molar equivalent HP5 HPBCD, water only): Hazy Solution (Incomplete)
Result (assessed by visual inspection) ([1]; DNa 5.0 mg/mL anhydrous salt equivalent (5.95 mg/mL hemiheptahydrate equivalent), particle size <2 μm, 7 molar equivalent HP5 HPBCD, water only): Hazy Solution (Incomplete)
solubility ([1]; hemiheptahydrate equivalent, 9 Mol equivalents of HPBCD, HP5 variant, purified water, read-out: Solubility of dantrolene sodium): 8500 µg/mL
solubility ([1]; hemiheptahydrate equivalent, 9 Mol equivalents of HPBCD, HP7 variant, purified water, read-out: Solubility of dantrolene sodium): 8500 µg/mL
solubility ([1]; thermodynamic from solid, as anhydrous salt equivalent, <63 μm particle size, 7 molar equivalent HP5 HPBCD, water only, read-out: Solubility (maximum concentration of dantrolene sodium that could be dissolved)): 4500 µg/mL
Maximum concentration of dantrolene sodium that could be dissolved ([1]; as anhydrous salt equivalent, 7 molar equivalent HP5 HPBCD, water only): 4.55 mg/mL
Maximum concentration of dantrolene sodium that could be dissolved ([1]; as hemiheptahydrate equivalent, 7 molar equivalent HP5 HPBCD, water only): 5.36 mg/mL
Solubility (maximum concentration of dantrolene sodium that could be dissolved) ([1]; as hemiheptahydrate equivalent, <63 μm particle size, 7 molar equivalent HP5 HPBCD, water only): 5350 µg/mL
Result (assessed by visual inspection) ([2]; DNa 4.5 mg/mL anhydrous salt equivalent, Benzyl Alcohol 1%): Moderate Excess
Result (assessed by visual inspection) ([2]; DNa 4.5 mg/mL anhydrous salt equivalent, Ethanol Abs. 1%): Hazy - Small Excess
Result (assessed by visual inspection) ([2]; DNa 4.5 mg/mL anhydrous salt equivalent, Glycerol 5.18%): Hazy - Small Excess
Result (assessed by visual inspection) ([2]; DNa 4.5 mg/mL anhydrous salt equivalent, N,N-Dimethyl-formamide 2%): Hazy - Small Excess
Result (assessed by visual inspection) ([2]; DNa 4.5 mg/mL anhydrous salt equivalent, Polyethylene Glycol 300 (PEG-300) 5%): Hazy - Small Excess
Result (assessed by visual inspection) ([2]; DNa 4.5 mg/mL anhydrous salt equivalent, Polyethylene Glycol 400 (PEG-400) 5%): Hazy - Small Excess
Result (assessed by visual inspection) ([2]; DNa 4.5 mg/mL anhydrous salt equivalent, Propylene Glycol 5%): Moderate Excess
Result (assessed by visual inspection) ([2]; DNa 4.5 mg/mL anhydrous salt equivalent, Tert-Butanol 5%): Large Excess
Result (assessed by visual inspection) ([2]; DNa 4.5 mg/mL anhydrous salt equivalent, Tetrahydrofuran 2%): Large Excess
Result (assessed by visual inspection) ([2]; DNa 4.55 mg/mL anhydrous salt equivalent, N-Methyl-pyrrolidone 2, 4, 6%): Hazy - Small Excess
Result (assessed by visual inspection) ([2]; DNa 4.75 mg/mL anhydrous salt equivalent, Tert-Butanol 5%): Large Excess
Result (assessed by visual inspection) ([2]; DNa 5.0 mg/mL anhydrous salt equivalent, Benzyl Alcohol 2%): Large Excess
Result (assessed by visual inspection) ([2]; DNa 5.0 mg/mL anhydrous salt equivalent, Ethanol Abs. 20%): Large Excess
Result (assessed by visual inspection) ([2]; DNa 5.0 mg/mL anhydrous salt equivalent, Tert-Butanol 10%): Large Excess
Result (assessed by visual inspection) ([2]; DNa 5.0 mg/mL anhydrous salt equivalent, Tert-Butanol 20%): Large Excess
Effect of parenteral-compatible alcohol- or ketone-based solvents on dantrolene solubility in the presence of HPBCD ([2]; all 15 of the solvents tested, including PEG 300 and PEG 400): reduced dantrolene solubility
